Laboratory results as given in patent publication US7803795B2, “Phthalazine derivatives as parp inhibitors” (Janssen Pharmaceutica N.V., priority 2004, dated 2010).
Counter-ions that a name gives are not always drawn.

What was measured:
[1] = molecular target: T1, PARP-1 enzyme (Homo sapiens, UniProt P09874); test: in vitro filtration assay for PARP-1 inhibitory activity; type: biochemical; conditions: [32P]-NAD, histones, nicked DNA; dose-response 10^-5 M to 10^-8 M; read-out: in vitro filter assay PARP-1 pIC50 (converted)
T1 construct: made in house
T1 sequence (P09874 whole entry): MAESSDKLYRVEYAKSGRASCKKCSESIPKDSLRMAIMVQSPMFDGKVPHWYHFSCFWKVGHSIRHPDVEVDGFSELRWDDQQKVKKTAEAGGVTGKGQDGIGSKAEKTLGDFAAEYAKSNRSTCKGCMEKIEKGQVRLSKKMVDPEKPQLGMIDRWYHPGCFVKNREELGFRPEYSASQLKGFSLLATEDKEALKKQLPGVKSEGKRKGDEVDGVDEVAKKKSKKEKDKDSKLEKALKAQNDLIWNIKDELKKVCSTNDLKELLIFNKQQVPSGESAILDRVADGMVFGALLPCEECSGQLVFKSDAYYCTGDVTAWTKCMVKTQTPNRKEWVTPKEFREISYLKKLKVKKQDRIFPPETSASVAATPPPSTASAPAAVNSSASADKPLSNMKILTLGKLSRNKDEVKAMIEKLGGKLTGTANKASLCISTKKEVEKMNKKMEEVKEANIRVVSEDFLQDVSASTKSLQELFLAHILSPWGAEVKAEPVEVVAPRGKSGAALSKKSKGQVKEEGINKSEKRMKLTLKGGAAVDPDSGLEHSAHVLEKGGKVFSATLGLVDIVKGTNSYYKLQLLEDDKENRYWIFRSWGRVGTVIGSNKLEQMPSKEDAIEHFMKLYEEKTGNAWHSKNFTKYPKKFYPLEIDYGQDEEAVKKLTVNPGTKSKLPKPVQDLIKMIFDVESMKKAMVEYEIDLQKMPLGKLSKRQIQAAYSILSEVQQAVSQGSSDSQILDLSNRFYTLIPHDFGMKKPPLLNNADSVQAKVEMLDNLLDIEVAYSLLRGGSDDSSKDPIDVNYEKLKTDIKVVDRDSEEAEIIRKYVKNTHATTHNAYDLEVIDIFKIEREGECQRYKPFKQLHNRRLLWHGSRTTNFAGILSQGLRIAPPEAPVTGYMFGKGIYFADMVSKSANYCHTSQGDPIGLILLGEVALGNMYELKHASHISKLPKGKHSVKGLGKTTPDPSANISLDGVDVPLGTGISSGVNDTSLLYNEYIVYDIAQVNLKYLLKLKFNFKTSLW
Method: In Vitro Filtration Assay for PARP-1 Inhibitory Activity
Compounds of the present invention were tested in an in vitro filtration assay assessing PARP-1 activity (triggered in the presence of nicked DNA) by means of its histone poly (ADP-ribosylation activity using [^32P]-NAD as ADP-ribosyl donor. The radioactive ribosylated histones were precipitated by trichloroacetic acid (TCA) in 96-well filterplates and the incorporated [^32P] measured using a scintillation counter
A mixture of histones (stock solution: 5 mg/ml in H2O), NAD^+ (stock solution: 100 mM in H2O), and [^32P]-NAD^+ in incubation buffer (50 mM Tris/HCl, pH 8; 0.2 mM DTT; 4 mM MgCl2) was made. A mixture of the PARP-1 enzyme (5-10 μg/ml) and nicked DNA was also made. The nicked DNA was prepared as described in the in vitro SPA for PARP-1 inhibitory activity. Seventy-five μl of the PARP-1 enzyme/DNA mixture together with 1 μl of compound in DMSO and 25 μl of histones-NAD^+/[^32P]-NAD^+ mixture was added per well of a 96-well filterplate (0.45 μm, supplier Millipore). The final concentrations in the incubation mixture were 2 μg/ml for the histones, 0.1 mM for the NAD^+, […] (0.5 μC) for the [^32P]-NAD^+ and 2 μg/ml for the nicked DNA. Plates were incubated for 15 min. at room temperature and the reaction was terminated by the addition of 10 μl ice cold 100% TCA followed by the addition of 10 μl ice-cold BSA solution (1% in H2O). The protein fraction was allowed to precipitate for 10 min. at 4° C. and plates were vacuum filtered. The plates were subsequently washed with, for each well, 1 ml of 10% ice cold TCA, 1 ml of 5% ice cold TCA and 1 ml of 5% TCA at room temperature. Finally 100 μl of scintillation solution (Microscint 40, Packard) was added to each well and the plates were transferred to a TopCountNXT™ (supplier: Packard) for scintillation counting and values were expressed as counts per minute (cpm). For each experiment, controls (containing PARP-1 enzyme and DMSO without compound), a blank incubation (containing DMSO but no PARP-1 enzyme or compound) and samples (containing PARP-1 enzyme and compound dissolved in DMSO) were run in parallel. All compounds tested were dissolved and eventually further diluted in DMSO. In first instance, compounds were tested at a concentration of 10^−5M. […] In each test, the blank value was subtracted from both the control and the sample values. The control sample represented maximal PARP-1 enzyme activity. For each sample, the amount of cpm was expressed as a percentage of the mean cpm value of the controls. When appropriate, IC50-values (concentration of the drug, needed to reduce the PARP-1 enzyme activity to 50% of the control) were computed using linear interpolation between the experimental points just above and below the 50% level. Herein the effects of test compounds are expressed as pIC50 (the negative log value of the IC50-value). As a reference compound, 4-amino-1,8-naphthalimide was included to validate the filtration assay.

[2] = molecular target: T2, TANK-2 enzyme (Homo sapiens, UniProt Q9H2K2); test: in vitro Scintillation Proximity Assay (SPA) for TANK-2 inhibitory activity; type: biochemical
T2 construct: His tag (inferred from capture on a Ni-coated plate); made in house
T2 sequence (Q9H2K2 1-1166): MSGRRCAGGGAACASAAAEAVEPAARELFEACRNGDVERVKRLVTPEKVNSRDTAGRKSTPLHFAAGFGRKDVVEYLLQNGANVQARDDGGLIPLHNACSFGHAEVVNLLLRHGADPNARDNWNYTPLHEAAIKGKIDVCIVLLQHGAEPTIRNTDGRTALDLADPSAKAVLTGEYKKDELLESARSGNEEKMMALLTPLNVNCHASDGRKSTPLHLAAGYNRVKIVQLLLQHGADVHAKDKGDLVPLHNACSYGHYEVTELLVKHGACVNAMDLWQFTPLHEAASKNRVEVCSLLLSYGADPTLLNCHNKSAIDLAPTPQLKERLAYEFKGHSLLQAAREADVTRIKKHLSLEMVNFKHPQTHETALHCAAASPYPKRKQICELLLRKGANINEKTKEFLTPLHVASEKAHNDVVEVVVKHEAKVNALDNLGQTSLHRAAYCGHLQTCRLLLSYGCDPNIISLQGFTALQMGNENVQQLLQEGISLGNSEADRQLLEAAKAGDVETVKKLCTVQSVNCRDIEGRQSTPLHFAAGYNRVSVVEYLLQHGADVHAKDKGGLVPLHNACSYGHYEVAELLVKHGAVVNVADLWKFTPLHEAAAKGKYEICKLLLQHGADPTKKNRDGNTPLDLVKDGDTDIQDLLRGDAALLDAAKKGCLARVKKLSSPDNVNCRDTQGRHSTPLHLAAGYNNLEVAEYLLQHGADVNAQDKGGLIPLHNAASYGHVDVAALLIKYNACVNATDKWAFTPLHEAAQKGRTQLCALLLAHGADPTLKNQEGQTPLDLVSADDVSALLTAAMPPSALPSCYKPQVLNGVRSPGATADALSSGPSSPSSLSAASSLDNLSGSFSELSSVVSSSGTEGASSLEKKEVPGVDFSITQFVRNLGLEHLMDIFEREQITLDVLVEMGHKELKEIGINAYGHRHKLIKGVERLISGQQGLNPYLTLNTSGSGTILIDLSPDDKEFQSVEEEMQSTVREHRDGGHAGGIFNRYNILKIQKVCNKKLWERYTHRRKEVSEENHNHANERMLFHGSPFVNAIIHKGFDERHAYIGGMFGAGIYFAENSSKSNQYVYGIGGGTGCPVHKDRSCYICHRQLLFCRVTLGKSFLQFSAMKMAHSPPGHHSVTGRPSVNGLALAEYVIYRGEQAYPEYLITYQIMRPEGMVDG
Method: In Vitro Scintillation Proximity Assay (SPA) for Tank-2 Inhibitory Activity
Compounds of the present invention were tested in an in vitro assay based on SPA technology with Ni Flash plates (96 or 384 well).
In principle, the assay relies upon SPA technology for the detection of auto-poly(ADP-ribosylation of TANK-2 protein using [^3H]-nicotinamide adenine dinucleotide ([^3H]-NAD^+) as ADP-ribosyl donor.
A stock solution of [^3H]-NAD^+/NAD was made by adding 64.6 μl of [^3H]-NAD^+ (0.1 mCi/ml, supplier: Perkin Elmer) and 46.7 μl NAD-stock (10.7 mM, stored at −20° C., supplier Roche) to 1888.7 μl assay buffer (60 mM Tris/HCl, pH 7.4; 0.9 mM DTT; 6 mM MgCl2). The TANK-2 enzyme was produced as described in EP1238063.60 μl of assay buffer, together with 1 μl of compound in DMSO, 20 μl of [^3H]-NAD^+/NAD and 20 μl of TANK-2 enzyme (final concentration 6 μg/ml) was added per well into a 96-well Ni-coated flash plate (Perkin Elmer). After incubation of the mixture for 120 min. at room temperature, the reaction was terminated by adding 60 μl of stopsolution (42.6 mg NAD in 6 ml H2O). The plates were covered with a plate sealer and placed in a TopCountNXT™ (Packard) for scintillation counting. Values were expressed as counts per minute (cpm). For each experiment, controls (containing TANK-2 enzyme and DMSO without compound), a blank incubation (containing DMSO but no TANK-2 enzyme or compound) and samples (containing TANK-2 enzyme and compound dissolved in DMSO) were run in parallel. All compounds tested were dissolved and eventually further diluted in DMSO. […] In each test, the blank value was subtracted from both the control and the sample values. The control sample represented maximal TANK-2 enzyme activity. For each sample, the amount of cpm was expressed as a percentage of the mean cpm value of the controls. When appropriate, IC50-values (concentration of the drug, needed to reduce the TANK-2 enzyme activity to 50% of the control) were computed using linear interpolation between the experimental points just above and below the 50% level. Herein the effects of test compounds are expressed as pIC50 (the negative log value of the IC50-value). As reference compounds, 3-aminobenzamide and 4-amino-1,8-naphthalimide were included to validate the SPA assay. Herein the assay was described using 96-well plates. In the assay using 384-well plates the same final concentrations were used and volumes were adapted.

| Compound | melting point | IC50 [1] | IC50 [2] |
| --- | --- | --- | --- |
| O=c1[nH]nc(N[C@@H]2C[C@H]3CC[C@@H](C2)N3)c2ccccc12 (as salt: HBr) [Compound 15] | > 299 °C | – | – |
| Clc1nnc(NC2CCN(Cc3ccccc3)C2)c2ccccc12 (stereo not drawn) (as salt: HCl) (hydrate or solvate) [Compound 12] | 171.8 °C | – | – |
| Nc1ccc2c(=O)[nH]nc(NC3CCNCC3)c2c1 (as salt: HCl) (hydrate or solvate) [Compound 14] | > 300 °C | – | – |
| O=c1[nH]nc(C2CCN(CCCOc3ccc(F)cc3)CC2)c2ccccc12 (as salt: HCl) [Compound 13] | 227.6 °C | – | – |
| O=c1[nH]nc(N[C@@H]2C[C@H]3CC[C@@H](C2)N3CCCC(c2ccc(F)cc2)c2ccc(F)cc2)c2ccccc12 (hydrate or solvate) [Compound 3] | 164.4 °C | – | – |
| O=c1[nH]nc(C2CCNCC2)c2ccccc12 (hydrate or solvate) [Compound 4] | 264.9 °C | – | – |
| O=c1[nH]nc(C2CCN(C[C@H](O)[C@@H]3CCc4ccccc4O3)CC2)c2ccccc12 (relative stereo) [Compound 28] | – | 45.4 nM | – |
| O=c1[nH]nc(N[C@H]2CCN[C@@H](Cc3ccccc3)C2)c2ccccc12 (single isomer, unassigned) [Compound 35] | – | 177 nM | > 10000 nM |
| Nc1ccc2c(=O)[nH]nc(NC3CCNCC3)c2c1 [Compound 14] | – | 766 nM | > 10000 nM |
| N#CC1CCN(c2n[nH]c(=O)c3ccccc23)CC1 [Compound 18] | 253 °C | – | – |
| CCOC(=O)N1CC[C@H](Nc2nnc(Cl)c3ccccc23)C[C@@H]1Cc1ccccc1 [Compound 19] | 161 °C | – | > 10000 nM |
| CCOC(=O)N1CCC(Nc2nnc(Cl)c3ccc([N+](=O)[O-])cc23)CC1 [Compound 20] | 199 °C | – | > 10000 nM |
| O=c1[nH]nc(C2CCN(CC(O)COc3ccc(F)c(F)c3)CC2)c2ccccc12 (stereo not drawn) [Compound 26] | – | 17.3 nM | > 10000 nM |
| NC1CCN(c2n[nH]c(=O)c3ccccc23)CC1 [Compound 31] | – | 119 nM | > 10000 nM |
| N#CCN1CCN(c2n[nH]c(=O)c3ccccc23)CC1 [Compound 32] | – | 109 nM | 9250 nM |
| NCCN1CCC(Nc2n[nH]c(=O)c3ccccc23)CC1 [Compound 33] | – | 154 nM | > 10000 nM |
| O=c1[nH]nc(NCC2CCNCC2)c2ccccc12 [Compound 36] | – | 83.8 nM | 3130 nM |
| O=c1[nH]nc(NCCC2CCNCC2)c2ccccc12 [Compound 37] | – | 61.8 nM | > 10000 nM |

Further lines, results first:

| melting point | IC50 [1] | IC50 [2] | Compound |
| --- | --- | --- | --- |
| – | 148 nM | > 10000 nM | O=c1[nH]nc(NC2CC(Cc3ccccc3)NC(Cc3ccccc3)C2)c2ccccc12 (stereo not drawn) [Compound 38] |
| – | 213 nM | > 10000 nM | O=c1[nH]nc(NC2CCNCC2)c2cc(Cl)ccc12 [Compound 39] |
| – | 217 nM | > 10000 nM | O=c1[nH]nc(NC2CCNCC2)c2cccc([N+](=O)[O-])c12 [Compound 40] |
| – | 37.7 nM | > 10000 nM | O=c1[nH]nc(NC2CCNCC2)c2ccccc12 [Compound 41] |
| – | 179 nM | > 10000 nM | O=c1[nH]nc(NCCNC2CCN(Cc3ccccc3)CC2)c2ccccc12 [Compound 42] |
| – | 56.8 nM | > 10000 nM | CCOC(=O)N1CCC(CCNc2n[nH]c(=O)c3ccccc23)CC1 [Compound 43] |
| – | 109 nM | 5430 nM | O=c1[nH]nc(N2CCC(NCc3ccccc3)CC2)c2ccccc12 [Compound 45] |
| – | 182 nM | 6370 nM | CC(C)(C)OC(=O)N1CCC(CNc2n[nH]c(=O)c3ccccc23)CC1 [Compound 47] |
| – | 91.8 nM | – | CN(c1cc2ccccc2s1)C1CCN(c2n[nH]c(=O)c3ccccc23)CC1 [Compound 54] |
| – | 38.6 nM | – | O=c1[nH]nc(C2CCN(c3ccc(Cl)nn3)CC2)c2ccccc12 [Compound 62] |
| – | 29.2 nM | – | COc1ccc(CCN2CCC(c3n[nH]c(=O)c4ccccc34)CC2)cc1 [Compound 64] |
| – | – | > 10000 nM | FC(F)(F)c1cccc(N2CCN(c3nnc(Cl)c4ccccc34)CC2)c1 [Compound 79] |
| – | – | > 10000 nM | Clc1cccc(N2CCN(c3nnc(Cl)c4ccccc34)CC2)c1 [Compound 80] |
| – | – | 2790 nM | Cc1cccc(N2CCN(c3nnc(Cl)c4ccccc34)CC2)c1 [Compound 81] |
| – | – | > 10000 nM | COc1ccccc1N1CCN(c2nnc(Cl)c3ccccc23)CC1 [Compound 84] |
